Bounds are passed on as bounds.

The results in this text go back to patent US20240190880A1 (THE REGENTS OF THE UNIVERSITY OF MICHIGAN, priority 2021, published 2024).

One experiment concerns the target T1, ER (Homo sapiens, UniProt P03372).
T1 construct: host or cells: T47D and MCF7 human breast cancer cells
T1 sequence (P03372 1-595): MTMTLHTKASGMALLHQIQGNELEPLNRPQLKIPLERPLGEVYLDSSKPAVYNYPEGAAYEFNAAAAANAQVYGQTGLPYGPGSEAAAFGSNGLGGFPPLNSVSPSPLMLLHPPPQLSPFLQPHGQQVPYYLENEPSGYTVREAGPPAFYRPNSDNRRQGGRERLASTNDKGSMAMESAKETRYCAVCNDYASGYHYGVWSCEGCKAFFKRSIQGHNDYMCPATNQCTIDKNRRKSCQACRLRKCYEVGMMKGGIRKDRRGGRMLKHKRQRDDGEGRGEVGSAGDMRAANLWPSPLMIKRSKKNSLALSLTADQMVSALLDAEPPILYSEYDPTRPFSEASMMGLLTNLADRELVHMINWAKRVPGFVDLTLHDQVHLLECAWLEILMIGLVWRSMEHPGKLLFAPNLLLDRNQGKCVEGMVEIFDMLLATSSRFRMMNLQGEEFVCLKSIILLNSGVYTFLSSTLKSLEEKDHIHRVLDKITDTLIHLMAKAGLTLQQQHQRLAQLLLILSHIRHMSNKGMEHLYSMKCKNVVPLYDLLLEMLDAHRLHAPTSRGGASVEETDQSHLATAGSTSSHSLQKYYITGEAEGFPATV
As to the kind of experiment: ER degradation activity, in-cell western blot analysis in T47D cells. Conditions: 16 hours, Table A does not say which cell line (T47D or MCF7), read-out: Potency (DC50). It is filed as cell-based. An outline of the steps: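 T47D cells grown in DMEM with 10% FBS were treated with compounds for 16 hours at 0.5% DMSO final. ER was detected by in-cell western using 680/800 near-infrared secondary antibodies. Residual ER is given as percent of untreated and DMSO-treated wells set to 100%.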
Turning to `C[C@@H]1Cc2cc(O)ccc2[C@@H](c2c(F)cc(N3CCC4(CCN(CC(=O)N5Cc6cc7c(cc6C5)C(=O)N(C5CCC(=O)NC5=O)C7)C4)C3)cc2F)N1CC(C)(F)F` (stereo partly drawn) [E 32, 3-(6-(2-(7-(4-((1S,3R)-2-(2,2-difluoropropyl)-6-hydroxy-3-methyl-1,2,3,4-tetrahydroisoquinolin-1-yl)-3,5-difluorophenyl)-2,7-diazaspiro[4.4]nonan-2-yl)acetyl)-1-oxo-3,5,6,7-tetrahydropyrrolo[3,4-f]isoindol-2(1H)-yl)piperidine-2,6-dione], the DC50 is greater than 100 nM.

For the compound `C[C@@H]1Cc2cc(O)ccc2[C@@H](c2ccc(N3CCC(C(=O)N4CCC(N5Cc6cc7c(cc6C5)C(=O)N(C5CCC(=O)NC5=O)C7=O)CC4)CC3)cc2F)N1CC(F)F` (stereo partly drawn) [E 323, 6-(1-(1-(4-((1S,3R)-2-(2,2-difluoroethyl)-6-hydroxy-3-methyl-1,2,3,4-tetrahydroisoquinolin-1-yl)-3-fluorophenyl)piperidine-4-carbonyl)piperidin-4-yl)-2-(2,6-dioxopiperidin-3-yl)-6,7-dihydropyrrolo[3,4-f]isoindole-1,3(2H,5H)-dione], the DC50 was less than 10 nM.

On to `C[C@@H]1Cc2cc(O)ccc2[C@@H](c2c(F)cc(N3CCC4(CC3)CN(C(=O)CN3Cc5cc6c(cc5C3)C(=O)N(C3CCC(=O)NC3=O)C6)C4)cc2F)N1CC(F)F` (stereo partly shown) [E 35], for which the DC50 was less than 10 nM.

As to `O=C1CCC(N2Cc3cc4c(cc3C2=O)CN(C2CCN(CC3CN(c5ccc([C@@H]6c7ccc(O)cc7CC[C@@H]6c6ccccc6)cc5)C3)CC2)C4)C(=O)N1` (stereo partly drawn) [E 294, 3-(6-(1-((1-(4-((1R,2S)-6-hydroxy-2-phenyl-1,2,3,4-tetrahydronaphthalen-1-yl)phenyl)azetidin-3-yl)methyl)piperidin-4-yl)-1-oxo-3,5,6,7-tetrahydropyrrolo[3,4-f]isoindol-2(1H)-yl)piperidine-2,6-dione], the 50% degradation concentration (DC50) was greater than 100 nM.

On to `C[C@@H]1Cc2c([nH]c3ccccc23)[C@@H](c2c(F)cc(N3CCC(CN4CC(N5Cc6cc7c(cc6C5)C(=O)N(C5CCC(=O)NC5=O)C7)C4)CC3)cc2F)N1CC(F)F` (stereo partly drawn) [E 52, 3-(6-(1-((1-(4-((1R,3R)-2-(2,2-difluoroethyl)-3-methyl-2,3,4,9-tetrahydro-1H-pyrido[3,4-b]indol-1-yl)-3,5-difluorophenyl)piperidin-4-yl)methyl)azetidin-3-yl)-1-oxo-3,5,6,7-tetrahydropyrrolo[3,4-f]isoindol-2(1H)-yl)piperidine-2,6-dione], for which the DC50 was less than 10 nM.

For the compound `O=C1CCC(N2C(=O)c3cc4c(cc3C2=O)CN(CC2CCN(C(=O)C3CN(c5ccc([C@@H]6c7ccc(O)cc7CC[C@@H]6c6ccccc6)cc5)C3)CC2)C4)C(=O)N1` (mixture of isomers) [E 156, Rac-2-(2,6-dioxopiperidin-3-yl)-6-((1-(1-(4-((1R,2S)-6-hydroxy-2-phenyl-1,2,3,4-tetrahydronaphthalen-1-yl)phenyl)azetidine-3-carbonyl)piperidin-4-yl)methyl)-6,7-dihydropyrrolo[3,4-f]isoindole-1,3(2H,5H)-dione], the DC50 fell in the range of 10 to 100 nM.

Staying with this experiment, now noted: compounds 16 hours, Table A does not say whether T47D or MCF7, read-out: Potency (DC50).
As to `C[C@@H]1Cc2cc(O)ccc2[C@@H](c2c(F)cc(C3CCC4(CC3)CCN(C(=O)CN3Cc5cc6c(cc5C3)C(=O)N(C3CCC(=O)NC3=O)C6=O)CC4)cc2F)N1CC(F)F` (stereo partly drawn) [E 447, 6-(2-(9-(4-((1S,3R)-2-(2,2-difluoroethyl)-6-hydroxy-3-methyl-1,2,3,4-tetrahydroisoquinolin-1-yl)-3,5-difluorophenyl)-3-azaspiro[5.5]undecan-3-yl)-2-oxoethyl)-2-(2,6-dioxopiperidin-3-yl)-6,7-dihydropyrrolo[3,4-f]isoindole-1,3(2H,5H)-dione], the DC50 is greater than 100 nM.
